In the assay the target is human aquaporin 9 (Homo sapiens (Human), UniProt O43315). Put plainly: Calcein quenching fluostar assay (inhibition of human aquaporin 9). Conditions: Human AQP9 cell line; example compounds used as 1 mM stock solutions in DMSO. It is filed as cell-based. The procedure: Calcein Quenching Fluostar Assay
A calcein quenching fluostar assay was performed in order to investigate the biological activity of the newly synthesized examples 1 to 57. This type of assay is disclosed in J. Biol. Chem., 2011, 286, 44319-44325 and Am. J. Physiol. Renal Physiol. (2010), 298, F224-230.
1) Two days prior to commencement of the assay, seed 10,000 cells/well of 96 well black clear bottom plate (Greiner Poly-lysin plate). A 1:1 mix of Dulbecco's Modified Eagle's Medium: Nutrient Mixture F-12 (DMEM: F12) was obtained from Gibco. Tetracycline stock of 5 mg/ml in 96% ethanol is used. Medium: DMEM/F12/10% Donor Bovine Serum, Human AQP9 cell line+1:270,000 tetracyclin, mouse AQP9 cell line+1:2,700,000 tetracycline.
2) Day of assay: Flick/slam off the medium and add 50 μl/well of loading solution: 5 ml DMEM/F12/10% Donor Bovine Serum, 25 μl Calcein AM—from freshly dissolved aliquot in 50 μl DMSO (VWR #734-1434), and 100 μl Probenecid.
3) Incubate the well for 90 minutes at 37° C.
4) Perform one wash with 75 μl wash buffer.
5) Add 75 μl of an example compound prepared in wash buffer per well.
Example compounds are prepared in 500 μl U bottom PP plates (NUNC). 2.7 μl Substance in DMSO are added to row A; 180 μl of wash buffer+1% DMSO are added to rows B—H. 90 μl from row A are transferred and mixed with all other wells (up to row G) to make a 3-fold dilution series.
6) Assay in FLUOstar Optima at 25° C. Settings buffer addition at 135 μl/seconds, add 75 μl/well, record time course for 30 seconds, add sucrose buffer 3.6 seconds into recording.
7) Normalization to initial in Excel.
8) Fit to “exponential decay” function in GraphPad Prism 5.0, then arrange half live shrinking values according to wells and fit dose-response curves.

Each structure is given as a SMILES string.

Chain of human aquaporin 9 (O43315 whole entry): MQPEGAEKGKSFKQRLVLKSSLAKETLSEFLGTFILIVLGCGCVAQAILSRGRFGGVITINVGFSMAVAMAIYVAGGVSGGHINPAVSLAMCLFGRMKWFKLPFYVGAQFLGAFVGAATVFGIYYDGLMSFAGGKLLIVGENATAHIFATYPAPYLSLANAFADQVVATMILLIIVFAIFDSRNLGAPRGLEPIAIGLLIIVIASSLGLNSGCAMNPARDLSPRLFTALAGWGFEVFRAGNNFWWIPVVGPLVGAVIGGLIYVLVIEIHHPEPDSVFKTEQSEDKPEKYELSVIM

Regarding `CCc1nnc(SCC(=O)Nc2nnc(-c3ccc(OC(C)C)cc3)s2)n1CC` [Example 34, 2-[(4,5-diethyl-4H-1,2,4-triazol-3-yl)sulfanyl]-N-[5-(4-isopropoxyphenyl)-1,3,4-thiadiazol-2-yl]acetamide], the EC50 is 55 nM.

In the case of `CCn1c(SCC(=O)Nc2nnc(-c3ccc(OC(C)C)cc3)s2)nnc1C(C)C` [Example 29, 2-{[4-ethyl-5-(propan-2-yl)-4H-1,2,4-triazol-3-yl]sulfanyl}-N-{5-[4-(propan-2-yloxy)phenyl]-1,3,4-thiadiazol-2-yl}acetamide], the EC50 was 90 nM.

In the case of `CCn1c(SCC(=O)Nc2nnc(-c3ccc(S(C)(=O)=O)cc3)s2)nnc1C1CCCC1` [Example 45, (2-[(5-cyclopentyl-4-ethyl-4H-1,2,4-triazol-3-yl)sulfanyl]-N-[5-(4-methanesulfonylphenyl)-1,3,4-thiadiazol-2-yl]acetamide)], the EC50 was 40 nM.

With `CCc1nnc(SCC(=O)Nc2nnc(-c3ccc(OC)cc3)s2)n1C` [Example 10, 2-[(5-ethyl-4-methyl-4H-1,2,4-triazol-3-yl)sulfanyl]-N-[5-(4-methoxyphenyl)-1,3,4-thiadiazol-2-yl]acetamide], the EC50 is 101 nM and the pEC50 in the inhibition of human aquaporin 9 is 7.

For the compound `CCn1c(C)nnc1SCC(=O)Nc1nnc(-c2ccc(S(C)(=O)=O)cc2)s1` [Example 5, 2-[(4-ethyl-5-methyl-4H-1,2,4-triazol-3-yl)sulfanyl]-N-[5-(4-methanesulfonylphenyl)-1,3,4-thiadiazol-2-yl]acetamide], the EC50 was 455 nM.

On to `CCc1nnc(SCC(=O)Nc2nnc(-c3ccc(S(C)(=O)=O)cc3)s2)n1CC` [Example 8, 2-[(diethyl-4H-1,2,4-triazol-3-yl)sulfanyl]-N-[5-(4-methanesulfonylphenyl)-1,3,4-thiadiazol-2-yl]acetamide], for which the EC50 was 66 nM and the pEC50 in the inhibition of human aquaporin 9 is 7.2.

Take `CCCc1ccc(-c2nnc(NC(=O)CSc3nnc(CCOC)n3CC)s2)cc1` [Example 24, 2-{[4-ethyl-5-(2-methoxyethyl)-4H-1,2,4-triazol-3-yl]sulfanyl}-N-[5-(4-propylphenyl)-1,3,4-thiadiazol-2-yl]acetamide]: the EC50 is 41 nM and the pEC50 in the inhibition of human aquaporin 9 is 7.4.

On to `CCc1ccc(-c2nnc(NC(=O)CSc3nnc(CC)n3CC)s2)cc1` [Example 14, 2-[(diethyl-4H-1,2,4-triazol-3-yl)sulfanyl]-N-[5-(4-ethylphenyl)-1,3,4-thiadiazol-2-yl]acetamide], for which the EC50 was 65 nM and the pEC50 in the inhibition of human aquaporin 9 was 7.2.

Consider `CCc1nnc(SCC(=O)Nc2nnc(-c3ccc(CC(C)C)cc3)s2)n1CC` [Example 19, 2-[(diethyl-4H-1,2,4-triazol-3-yl)sulfanyl]-N-{5-[4-(2-methylpropyl)phenyl]-1,3,4-thiadiazol-2-yl}acetamide], for which the concentration for a half-maximal effect (EC50) was 94 nM.

On to `CCn1c(CN2CCOCC2)nnc1SCC(=O)Nc1nnc(-c2ccc(OC)cc2)s1` [Example 48, 2-{[4-ethyl-5-(morpholin-4-ylmethyl)-4H-1,2,4-triazol-3-yl]sulfanyl}-N-[5-(4-methoxyphenyl)-1,3,4-thiadiazol-2-yl]acetamide], for which the EC50 is 230 nM.

Consider `CCc1nnc(SCC(=O)Nc2nnc(-c3ccc(OCCOC)cc3)s2)n1CC` [Example 30, 2-[(diethyl-4H-1,2,4-triazol-3-yl)sulfanyl]-N-{5-[4-(2-methoxyethoxy)phenyl]-1,3,4-thiadiazol-2-yl}acetamide], for which the EC50 is 21 nM.

With `CCc1nnc(SCC(=O)Nc2nnc(-c3ccc(OC)cc3)s2)n1CC` [Example 2, 2-[(diethyl-4H-1,2,4-triazol-3-yl)sulfanyl]-N-[5-(4-methoxyphenyl)-1,3,4-thiadiazol-2-yl]acetamide], the EC50 was 59 nM.

As to `CCOc1ccc(-c2nnc(NC(=O)CSc3nnc(C(C)C)n3CC)s2)cc1` [Example 27, N-[5-(4-ethoxyphenyl)-1,3,4-thiadiazol-2-yl]-2-{[4-ethyl-5-(propan-2-yl)-4H-1,2,4-triazol-3-yl]sulfanyl}acetamide], the EC50 was 69 nM.

Take `CCCc1ccc(-c2nnc(NC(=O)CSc3nnc(CC)n3CC)s2)cc1` [Example 15, 2-[(diethyl-4H-1,2,4-triazol-3-yl)sulfanyl]-N-[5-(4-propylphenyl)-1,3,4-thiadiazol-2-yl]acetamide]: the EC50 is 57 nM.

For the compound `CCc1nnc(SCC(=O)Nc2nnc(-c3ccc(S(C)(=O)=O)cc3)s2)n1C` [Example 41, 2-[(5-ethyl-4-methyl-4H-1,2,4-triazol-3-yl)sulfanyl]-N-[5-(4-(methylsulfonyl)phenyl)-1,3,4-thiadiazol-2-yl]acetamide], the EC50 is 490 nM and the pEC50 in the inhibition of human aquaporin 9 is 6.3.

Regarding `CCn1c(CCOC)nnc1SCC(=O)Nc1nnc(-c2ccc(OC(C)C)cc2)s1` [Example 23, 2-{[4-ethyl-5-(2-methoxyethyl)-4H-1,2,4-triazol-3-yl]sulfanyl}-N-{5-[4-(propan-2-yloxy)phenyl]-1,3,4-thiadiazol-2-yl}acetamide], the EC50 is 39 nM and the pEC50 in the inhibition of human aquaporin 9 was 7.4.

Consider `CCn1c(SCC(=O)Nc2nnc(-c3ccc(OCCOC)cc3)s2)nnc1C1CC1` [Example 43, 2-[(5-cyclopropyl-4-ethyl-4H-1,2,4-triazol-3-yl)sulfanyl]-N-[5-(4-(2-methoxyethoxy)phenyl)-1,3,4-thiadiazol-2-yl]acetamide], for which the EC50 was 52 nM.

For `CCn1c(SCC(=O)Nc2nnc(-c3ccc(OCCOC)cc3)s2)nnc1C(C)C` [Example 31, 2-{[4-ethyl-5-(propan-2-yl)-4H-1,2,4-triazol-3-yl]sulfanyl}-N-{5-[4-(2-methoxyethoxy)phenyl]-1,3,4-thiadiazol-2-yl}acetamide], the EC50 was 37 nM.

Consider `CCn1c(SCC(=O)Nc2nnc(-c3ccc(O)cc3)s2)nnc1C1CC1` [Example 38, 2-[(5-cyclopropyl-4-ethyl-4H-1,2,4-triazol-3-yl)sulfanyl]-N-[5-(4-hydroxyphenyl)-1,3,4-thiadiazol-2-yl]acetamide], for which the EC50 was 81 nM and the pEC50 in the inhibition of human aquaporin 9 is 7.1.

For the compound `CCc1nnc(SCC(=O)Nc2nnc(-c3ccc(S(C)(=O)=O)cc3)s2)n1C1CC1` [Example 39, 2-[(4-cyclopropyl-5-ethyl-4H-1,2,4-triazol-3-yl)sulfanyl]-N-[5-(4-(methylsulfonyl)phenyl)-1,3,4-thiadiazol-2-yl]acetamide], the EC50 was 135 nM.

For the compound `CCc1nnc(SCC(=O)Nc2nnc(-c3ccc(OC)cc3)s2)n1CCCOC` [Example 47, 2-{[5-ethyl-4-(3-methoxypropyl)-4H-1,2,4-triazol-3-yl]sulfanyl}-N-[5-(4-methoxyphenyl)-1,3,4-thiadiazol-2-yl]acetamide], the EC50 was 159 nM.

Take `CCn1c(SCC(=O)Nc2nnc(-c3ccc(S(C)(=O)=O)cc3)s2)nnc1C(C)C` [Example 6, 2-{[4-ethyl-5-(propan-2-yl)-4H-1,2,4-triazol-3-yl]sulfanyl}-N-[5-(4-methanesulfonylphenyl)-1,3,4-thiadiazol-2-yl]acetamide]: the concentration giving a half-maximal response (EC50) was 192 nM and the pEC50 in the inhibition of human aquaporin 9 was 6.7.

With `CCn1c(OCC(=O)Nc2nnc(-c3ccc(OC)cc3)s2)nnc1-c1ccc(F)cc1` [Example 4, 2-{[4-ethyl-5-(4-fluorophenyl)-4H-1,2,4-triazol-3-yl]oxy}-N-[5-(4-methoxyphenyl)-1,3,4-thiadiazol-2-yl]acetamide], the EC50 is 175 nM.

In the case of `CCc1nnc(SCC(=O)Nc2nnc(-c3ccc(S(C)(=O)=O)cc3)s2)n1C(C)C` [Example 42, 2-[(5-ethyl-4-isopropyl-4H-1,2,4-triazol-3-yl)sulfanyl]-N-[5-(4-(methylsulfonyl)phenyl)-1,3,4-thiadiazol-2-yl]acetamide], the EC50 was 76 nM and the pEC50 in the inhibition of human aquaporin 9 was 7.1.

`CCCCc1ccc(-c2nnc(NC(=O)CSc3nnc(CC)n3CC)s2)cc1` [Example 16, 2-[(diethyl-4H-1,2,4-triazol-3-yl)sulfanyl]-N-[5-(4-butylphenyl)-1,3,4-thiadiazol-2-yl]acetamide]: the EC50 was 179 nM.

Turning to `CCc1nnc(SCC(=O)Nc2nnc(-c3ccc(O)cc3)s2)n1CC` [Example 21, 2-[(diethyl-4H-1,2,4-triazol-3-yl)sulfanyl]-N-[5-(4-hydroxyphenyl)-1,3,4-thiadiazol-2-yl]acetamide], the EC50 was 224 nM.

Turning to `CCn1c(Cc2cccc(F)c2)nnc1SCC(=O)Nc1nnc(-c2ccc(OC)cc2)s1` [Example 37, 2-[(4-ethyl-5-(3-fluorobenzyl)-4H-1,2,4-triazol-3-yl)sulfanyl]-N-[5-(4-methoxyphenyl)-1,3,4-thiadiazol-2-yl]acetamide], the EC50 is 132 nM and the pEC50 in the inhibition of human aquaporin 9 was 6.9.

What is called EC50 is the concentration that produces a half-maximal response.

(Values after patent US10730865B2, “Compounds for modulating aquaporins” (APOGLYX AB, priority 2016, dated 2020).)
